Where two headings read alike, the source gives them in different places.
How the values were obtained:
[1] = Pharmacokinetic parameters after intravenous administration; format: in vivo, rat; details: for half-life: plasma
Protocol: 5. Determination of the Pharmacokinetic Parameters after Intravenous Administration
5.1. Intravenous Administration:
For this, the substances were administered in dissolved form, compatible solubilizers such as PEG400 and/or ethanol being used in tolerable quantity. The substances were administered at a dosage of 0.1-1 mg/kg. The administration was effected in the female rat as a bolus injection. Here, at various times after bolus injection ca. 100-150 μl blood samples were withdrawn from the jugular vein via a catheter. The blood samples were treated with lithium-heparin as anticoagulant and stored refrigerated until further work-up. After centrifugation of the samples for 15 mins at 3000 rpm, an aliquot of 100 μl was withdrawn from the supernatant (plasma) and precipitated by addition of 400 μl of cold acetonitrile or methanol (absolute). The precipitated samples were frozen overnight at −20° C., then centrifuged once again for 15 mins at 3000 rpm, before 150 μl of the clear supernatant was withdrawn for the concentration determination. The analysis was performed with an Agilent 1200 HPLC system with attached LCMS/MS detection.
5.2 Calculation of the PK Parameters
The calculation was performed by means of the PK calculation software WinNonLin®, where t1/2 means half-life within a specified interval (here: terminal t1/2, in hrs).

[2] = biological target: EP2 subtype of the human PGE2 receptor (Homo sapiens, UniProt P43116); assay: cAMP antagonism test on the human EP2 receptor (HTRF cAMP detection); format: cell-based; details: hEP2 receptor
Summary of the method: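 Cells expressing human EP2 preincubated 20 min at RT with compound (0.8 nM–16.5 μM), then stimulated 60 min with PGE2 (3× solution 1.5 nM) in PBS-IBMX. After 20 min lysis, cAMP measured by competitive HTRF with cAMP-d2 and Eu cryptate anti-cAMP antibody (665/620 nm ratio).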

human PGD receptor = biological target: T1, human PGD receptor (Homo sapiens, UniProt Q13258); assay: cAMP antagonism test on the human prostaglandin D receptor (HTRF cAMP detection); format: cell-based; details: selectivity towards hDP, IC50 measured by cAMP antagonism test
T1 sequence (Q13258 1-359): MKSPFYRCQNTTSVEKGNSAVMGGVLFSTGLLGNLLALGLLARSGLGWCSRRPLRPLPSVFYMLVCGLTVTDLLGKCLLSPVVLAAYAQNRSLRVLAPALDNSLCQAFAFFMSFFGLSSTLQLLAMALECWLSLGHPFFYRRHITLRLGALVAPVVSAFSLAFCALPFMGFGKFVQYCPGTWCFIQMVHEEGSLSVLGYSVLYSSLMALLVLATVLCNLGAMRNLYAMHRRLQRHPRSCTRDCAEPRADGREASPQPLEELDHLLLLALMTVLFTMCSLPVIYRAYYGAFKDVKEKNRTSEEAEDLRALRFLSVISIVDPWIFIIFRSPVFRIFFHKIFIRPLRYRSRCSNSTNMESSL
Summary of the method: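 Cells pre-mixed with cAMP-d2 were preincubated with compound (0.8 nM–16.5 μM) for 20 min at RT, then stimulated with 3× PGD2 solution (6 nM, in PBS-IBMX) for 30 min at RT. After lysis (20 min), HTRF read at 665/620 nm; antagonism seen as rise in FRET ratio.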

cumulus-oocyte complexes = assay: Cumulus expansion test in vitro; format: cell-based, mice (strain: B6D2F1); details: for inhibition at 1 µM / inhibition at 0.5 µM: Mus musculus, 0.3 μM PGE2 for stimulation; for inhibition at 1 µM: read-out: % reduction at 1 μM (reduction in the cumulus expansion); for inhibition at 0.5 µM: read-out: % reduction at 0.5 μm (reduction in the cumulus expansion)
Protocol: 4.2. Cumulus Expansions Test In Vitro In immature female mice (strain: B6D2F1 from Charles River), at an age of 14-18 days, the folliculogenesis was induced by a single administration (intraperitoneal) of 10 IU of PMSG (pregnant mare serum gonadotropin; Sigma G-4877, Lot 68H0909). 47-50 hours after the injection, the ovaries were removed and the cumulus-oocyte complexes removed. At this stage, the cumulus complex is not yet expanded. The cumulus-oocyte complexes were now incubated for 20-24 hours with prostaglandin E2 (PGE) (0.3 μM), vehicle control (ethanol) or test substances. Medium: alpha-MEM medium with 0.1 mM IBMX, pyruvate (0.23 mM), glutamine (2 mM), pen/strep 100 IU/ml pen. and 100 μg/ml strep.), HSA (8 mg/ml) and foetal bovine serum (FBS, 10%). The cumulus expansion was then established through the subdivision into four stages (after Vanderhyden et al. Dev Biol. 1990 August; 140(2):307-317).

[3] = after intravenous administration in the female rat, read-out: Terminal half-life t1/2 (converted)

EP2 subtype of the human PGE2 receptor, sequence (P43116 whole entry): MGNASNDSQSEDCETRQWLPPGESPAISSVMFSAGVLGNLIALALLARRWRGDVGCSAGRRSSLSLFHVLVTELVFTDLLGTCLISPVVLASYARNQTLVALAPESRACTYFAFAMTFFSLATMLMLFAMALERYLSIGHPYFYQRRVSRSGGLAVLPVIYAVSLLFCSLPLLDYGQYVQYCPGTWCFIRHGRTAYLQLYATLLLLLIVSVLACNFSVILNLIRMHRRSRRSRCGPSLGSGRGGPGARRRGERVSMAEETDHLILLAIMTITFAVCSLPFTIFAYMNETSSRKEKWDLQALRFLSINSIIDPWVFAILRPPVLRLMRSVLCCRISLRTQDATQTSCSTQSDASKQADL

SMILES	Terminal half-life t1/2 ([1]; after intravenous administration in the female rat) [h]	half-life ([1]; intravenous administration, female rat, read-out: terminal half-life t1/2 (converted)) [h]	IC50 ([2]; read-out: Antagonism hEP2 IC50) [nM]	IC50 ([2]; read-out: IC50) [nM]	Selectivity hEP2/hDP (human PGD receptor)	suppression of the cumulus expansion (cumulus-oocyte complexes; 0.5 μM, PGE2 0.3 μM)	inhibition at 1 µM (cumulus-oocyte complexes) [%]	inhibition at 0.5 µM (cumulus-oocyte complexes) [%]	half-life [1, 3] [h]
COCCNC(=O)c1ccc2nn(CC3CCN(C(=O)c4ccc(Oc5ccc(C(F)(F)F)cc5)cc4)CC3)cc2c1C [Example 17, N-(2-methoxyethyl)-4-methyl-2-[(1-{4-[4-(trifluoromethyl)-phenoxy]benzoyl}-piperidin-4-yl)-methyl]-2H-indazol-5-carboxamide]	2.5	2.5	3.44	3.4	xxx (xxx > 100)	ca. 70%	76	71	
Cc1c(C(=O)NCC(F)(F)F)ccc2nn(CC3CCN(C(=O)c4ccc(Oc5ccc(F)cc5)cc4)CC3)cc12 [Example 283, 2-({1-[4-(4-fluorophenoxy)benzoyl]piperidin-4-yl}methyl)-4-methyl-N-(2,2,2-trifluoroethyl)-2H-indazol-5-carboxamide]			65.5		xxx (xxx > 100)		26	25	5.8
COCCNC(=O)c1ccc2nn(CC3CCN(C(=O)c4ccc(-c5ccc(F)cc5)cc4F)CC3)cc2c1C [Example 42, 2-({1-[(3,4′-difluoro-biphenyl-4-yl)-carbonyl]piperidin-4-yl}methyl)-N-(2-methoxyethyl)-4-methyl-2H-indazol-5-carboxamide]			4.75		xxx (xxx > 100)		79	48	3.2
COCCNC(=O)c1ccc2nn(CC3CN(C(=O)c4ccc(Cl)cc4)C3)cc2c1C [Example 117, 2-{[1-(4-chlorobenzoyl)azetidin-3-yl]methyl}-N-(2-methoxyethyl)-4-methyl-2H-indazol-5-carboxamide]			17.8		xxx (xxx > 100)		54	30	2

Reference: patent US9062041B2 (Bayer Intellectual Property GmbH, priority 2011, dated 2015)
